Measured values taken from patent publication US20260219274A1, “POLYOL SWEETNERS AND CARDIOVASCULAR AND THROMBOTIC EVENT RISK” (THE CLEVELAND CLINIC FOUNDATION, priority 2023, published 2026).

Experiments:
[1] = test system: platelets of healthy volunteers; test: Erythritol or glucose ingestion: platelet aggregation and granule release; assay type: in vivo, human
Experimental: (§1) This single center trial was approved by the Cleveland Clinic Institutional Review Board (clinicaltrials.gov identifier NCT04731363). Following subject consent (nonsmokers without CVD, hypertension, or diabetes), blood was drawn after overnight fast and 30 min following consumption of water containing 30 g of […] glucose (n=10, 30.1±11 years of age, 40% male), or erythritol (n=10, 30.5±8 years of age, 50% male), a quantity commonly found in erythritol-sweetened foods and the daily intake of some subjects based on 2013-2014 National Health and Nutrition Examination Survey (NHANES) data and FDA filings.(4,5).
(§2) Following erythritol consumption, postprandial circulating erythritol levels (assessed using stable-isotope-dilution liquid-chromatography tandem mass spectrometry (LC/MS/MS)3) were >1000-fold increased compared to baseline levels (median[inter quartile range], 6480[5930-7300]μM versus 3.75[3.35-3.87]μM, P<0.0001). In contrast, circulating erythritol levels remained similar before versus after glucose consumption (3.0[2.6-4.0]μM versus 2.9[2.7-3.8]μM, P=0.87; glucose levels before versus after 86.5(81.8-93.0) versus 127.0(122.3-132.3), P=0.002). […] In contrast, glucose consumption had no effect on platelet aggregation.

[2] = test system: human platelet-rich plasma; test: Aggregometry in platelet-rich plasma; assay type: cell-based; conditions: PRP incubated with the polyol versus vehicle, submaximal agonist
Experimental: Aggregometry in platelet rich plasma (PRP) was performed as previously described^40 and outlined in supplemental methods.
Platelet rich plasma (PRP) was isolated as previously described.^5 Whole blood was drawn from healthy donors and anticoagulated with sodium citrate (0.109 M). PRP was prepared by centrifuging at 100×g for 10 min at 22° C. Platelet poor plasma (PPP) was obtained by additional centrifugation of the remaining blood samples at 11,000×g for 2 min. Next, platelets were counted with a hemocytometer and the platelet concentration adjusted to 2×10^8/mL using PPP. PRPs were then pre-incubated with xylitol (Catalogue #X3375-5G, Sigma, St. Louis, MO, USA) at indicated concentrations or vehicle (saline) for 30 min at 22° C. After exposure to xylitol or vehicle, PRPs were maintained in suspension with constant stirring (600 rpm) at 37° C. Subsequently, platelet aggregation was induced by adding the agonists ADP (up to 5 μM, Catalogue #384, Chronolog, Havertown, PA, US) or TRAP6 (TFLLR-NH2, up to 10 μM, Catalogue #464, Tocris, Bristol, UK). For all platelet aggregometry experiments, blood was always processed within approx. 30 minutes of collection, and isolated platelets were used within 120 minutes of isolation. When used, pairs of vehicle vs. xylitol incubated PRP were always incubated and analyzed together (beginning, middle, end of platelet prep use) and after 120 minutes post isolation, PRPs were not used anymore.
Platelet rich plasma (PRP) and platelet poor plasma (PPP) was prepared as previously described with sodium citrate (0.109 M) as anticoagulant^51. Platelets were counted and concentrations adjusted to 2×10^8/mL with PPP. PRPs were pre-incubated with erythritol (Catalogue #E7500, Sigma, St. Louis, MO, USA), glucose (Catalogue #G7021, Sigma, St. Louis, MO, USA) or 1,5-AHG (Catalogue #29874, Cayman Chemical, Ann Arbor, Michigan, USA) (at indicated concentrations) or vehicle (saline) for 30 min at 22° C. After pre-incubation PRPs were maintained in suspension with constant stirring (600 rpm) at 37° C. and platelet aggregation was initiated using ADP (up to 5 μM, Catalogue #384, Chronolog, Havertown, PA, US) or TRAP6 (TFLLR-NH2, up to […], Catalogue #464, Tocris, Bristol, UK).

clinical = conditions: both, human, in vivo
Experimental: as §1, §2

[3] = test system: stable subjects undergoing elective diagnostic cardiac evaluations (Discovery Cohort); conditions: in vivo
Text: Our first study employed a Discovery Cohort, where we used untargeted metabolomics (semi-quantitative analyses) to analyze plasma samples from 1,157 stable subjects to identify circulating analytes whose levels were associated with future development of adverse cardiovascular events over an ensuing 3 year period. The Discovery Cohort included sequential stable patients (ages 18 years or above) undergoing elective diagnostic coronary angiography for risk evaluation at a quaternary referral center between 2001 and 2007 (GeneBank at the Cleveland Clinic; clinicaltrials.gov identifier: NCT00590200) with clinical and longitudinal outcomes.
In both, the Discovery and Validation Cohorts, Major Adverse Cardiovascular Events (MACE) were defined as death, nonfatal myocardial infarction, or nonfatal cerebrovascular accident (stroke) during follow-up. Adjudicated long term survival data were collected through medical records review and Social Security Death Index query. Cardiovascular disease (CVD) was indicated as presence of peripheral artery disease or coronary artery disease, indicated as any clinical history of myocardial infarction, coronary revascularization (including percutaneous coronary intervention, coronary artery bypass surgery), or angiographic evidence of significant stenosis (≥50%) in 1 or more major coronary arteries. Estimated glomerular filtration rate (eGFR) in both cohorts was calculated based on the recent Chronic Kidney Disease Epidemiology Collaboration 2021 CKD-EPI Creatinine equation.^37 Platelet-related hematology analyses were performed with an Advia 120 hematology analyzer (Siemens, New York, NY).^38 Use of anti-platelet agents (=1556) was defined as either aspirin or a P2Y12 agent or both. All observational studies in this example are reported in compliance with the STrengthening the Reporting of Observational studies in Epidemiology (STROBE)-Statement.^39 Information on gender of study participants of the Discovery and Validation Cohorts is reported in Table 1-3.
For untargeted mass spectrometry analyses, subject plasma samples were derivatized and run on GC-MS analyses as previously described.^19 Raw data files were processed using the metabolomics BinBase database.^45
Continuous variables are summarized as median (interquartile range [IQR]), and categorical variables are presented as %. Difference between groups (e.g. tertiles or quartiles) were examined using Kruskal Wallis test for continuous variables and chisq (χ^2) test for categorical variables. Kaplan-Meier analysis with Cox proportional-hazards regression was used for time-to-event analysis to determine hazard ratios (HR) and 95% confidence intervals (CI) for incident MACE. Adjustments included traditional cardiovascular risk factors (age, sex, diabetes mellitus, systolic blood pressure, low-density lipoprotein cholesterol levels, high-density lipoprotein cholesterol levels, triglyceride levels, smoking status) and high-sensitivity C-reactive protein (hsCRP). We confirmed that the proportionality hazards assumptions were met using the Schoenfeld residuals against the transformed time. Mann-Whitney U-test or Wilcoxon matched-pairs signed rank test were applied to continuous variables to examine differences between 2 groups. Kruskal-Wallis test with Dunn's post hoc test was used for pairwise multiple comparisons of ranked data. Two-way ANOVA with Šidák's multiple comparison post hoc test was used for multiple-group comparisons of aggregometry responses using different concentrations of agonists. For analysis of collagen-dependent platelet adhesion in whole blood, a two-way repeated measures ANOVA with Sidák's multiple comparison post hoc test was used. All reported measurements represent distinct samples. Data analyses were performed with R software (version 4.0.2) and GraphPad Prism software (version 9.1.2). A two-sided P<0.05 was considered statistically significant. […]

For `O=C[C@H](O)[C@@H](O)[C@H](O)[C@H](O)CO` [glucose, reference compound], the “platelet aggregation responses to ADP and TRAP6 after ingestion” value ([1]; 30 min after 30 g vs baseline) was “no effect”, the “stimulus-dependent release of alpha granule marker CXCL4” value ([1]; TRAP6 (7.5 μM), ADP (2.0 μM), after ingestion) was “no differences” and the “stimulus-dependent release of dense granule marker serotonin” value ([1]; TRAP6 and ADP, after ingestion) was “no differences”. The “stimulus-dependent platelet aggregation response to ADP and TRAP6” value [2] was “no effect”, the glucose levels (clinical) was 86.5(81.8-93.0) and the glucose levels (clinical; 30 min) was 127.0(122.3-132.3).

With `OC[C@H]1OC[C@H](O)[C@@H](O)[C@@H]1O` [1,5-AHG, 1,5-anhydroglucitol, reference compound] the “stimulus-dependent platelet aggregation response to ADP and TRAP6” value [2] was “no effect” and the “association with cardiovascular event risks / MACE” value [3] was “negatively associated”.
